{"source": "patent US11331330B2", "about": "“Phytochemical-antibiotic combination for the treatment of a bacterial infection” (University of Saskatchewan, priority 2018, dated 2022)", "key": {"[1]": {"system": "Mannheimia haemolytica ATCC 29702", "assay": "MIC by standard broth micro dilution assay (CLSI)", "type": "cell-based", "settings": "ATCC29702, M. haemolytica, BHIB, 37° C., 18-24 h", "protocol": "(§1) The bacterial strains of Mannheimia haemolytica ATCC 29702 and Pasteurella multocida ATCC 43137 were purchased from American Type Culture Collection (ATCC) distributor CEDARLANE Corporation, Burlington, Ontario, Canada and revived according to the manufacturer's instruction. Bacteria were grown in Brain Heart Infusion broth (BHIB).\n(§2) MIC of tulathromycin and gallic acid against Mannheimia haemolytica and Pasteurella multocida was determined by using standard broth micro dilution assay as outlined by CLSI (Richard S, Lynn S-M, Avery C G. Antimicrobial susceptibility testing protocols. New York: CRC Press; 2007). Strains were sub-cultured in Brain Heart Infusion Broth (BHIB), incubated at 37° C. overnight and bacterial suspension OD was adjusted with the media to 0.5 McFarland turbidity as per CLSI protocol (Approx. cell density 1.5×10^8 CFU/mL) using normal saline as control. 100 μl of broth was added to each well (including positive control wells) and then serial dilution of tulathromycin (5 to 0.04 μg/ml) and gallic acid (500 to 3.9 μg/ml) was executed. 5 μl of bacterial sample was added to all the wells except the positive control well. […] Plates were then incubated at 37° C. for 18-24 h and were subsequently read automatically by using 96 well plate reader (BIORAD iMark Microplate Reader) at 655 nm. The readings were double checked manually using the Sensititre Vizion System."}, "[2]": {"system": "Pasteurella multocida ATCC 43137", "assay": "MIC by standard broth micro dilution assay (CLSI)", "type": "cell-based", "settings": "ATCC43137, P. multocida, BHIB, 37° C., 18-24 h", "protocol": "as §1, §2"}, "[3]": {"system": "co-culture of M. haemolytica and P. multocida", "assay": "MIC against the co-culture", "type": "cell-based", "protocol": "MIC of tulathromycin, gallic acid and its combinations were determined against the co-culture of M. haemolytica and P. multocida. The overnight grown cultures of M. haemolytica and P. multocida were adjusted to 0.5 McFarland standard turbidity in BHIB, and then equal proportion of each of the cultures was added in the 96 well plates. After the addition of serially diluted drugs, the plates were incubated at 37° C. overnight and read as of above."}, "[4]": {"system": "M. haemolytica ATCC 29702", "assay": "Synergy studies, checker board serial dilution", "type": "cell-based, Mannheimia haemolytica", "settings": "gallic acid alone, 3.9 μg/ml dose", "protocol": "(§3) For the drug interaction studies, gallic acid was mixed with tulathromycin to test the drug interactions between tulathromycin and gallic acid. This was done by a checker board serial dilution technique performed in 96-well polypropylene plates (as explained elsewhere, for example, in [11]). The fractional inhibitory concentration (FIC) index of the combinations of antimicrobial compounds was calculated according to the equation: FIC index=FICA+FICB=A/MICA+B/MICB where A (gallic acid) and B (Tulathromycin) are the MICs of compound A and compound B in combination. MICA and MICB are the MICs of compound A and compound B, separately, FICA and FICB are the FICs of compound A and compound B (Hal M J J Antimicrob Chemother. 1983 May; 11(5):427-33). Results (a) Antimicrobial Activity of Tulathromycin and Gallic Acid\n(§4) • FICA, FICB—Fractional inhibitory concentration of drug A & B respectively. • MICA, MICB—Minimum inhibitory concentration of drug A & B respectively. • [A], [B]—Concentration of drug A & B respectively. • The FIC indexes were interpreted as follows: synergy is defined as ≤0.5; additivity is defined as 0.5<4.0; and antagonism is defined as >4. (d) Resistance Generation Study Results"}, "[5]": {"system": "P. multocida ATCC 43137", "assay": "Synergy studies, checker board serial dilution", "type": "cell-based, Pasteurella multocida", "settings": "gallic acid alone, 3.9 μg/ml dose", "protocol": "as §3, §4"}, "[6]": {"system": "M. haemolytica", "assay": "Resistance generation study", "type": "cell-based, Mannheimia haemolytica", "settings": "sub-MIC (1/2 MIC) doses, stress generation conditions", "protocol": "(§5) For the resistance generation studies, M. haemolytica and P. multocida were cultured in the presence of sub-MIC doses (1/2 MIC) of tulathromycin and gallic acid individually until they reach 1 unit OD at 565 nm. The bacterial cells were then given antibiotic stress relaxation by culturing them in BHIB till 1 OD unit of turbidity is reached at 565 nm. This first pass cycle of culturing in sub-MIC dose of tulathromycin, and relaxing in BHIB is considered as 1st generation (1G-TulathromycinA). The cycle as above was repeated to obtain 2nd and 3rd generation of bacterial cultures. Subsequently, MIC assays were performed with all the three generations of the two bacterial strains to evaluate the level of sensitivity towards tulathromycin. The experiments were repeated with gallic acid.\n(§6) Bacteria were treated individually with sub-MIC dose (½ MIC) of tulathromycin and gallic acid with alternate relaxation of stress in BHIB for […] each. Each 24 hrs treatment was considered as 1 generation (24 hrs drug+24 hrs of BHIB)."}, "[7]": {"system": "P. multocida", "assay": "Resistance generation study", "type": "cell-based, Pasteurella multocida", "settings": "sub-MIC (1/2 MIC) doses, stress generation conditions", "protocol": "as §5, §6"}, "[8]": {"target": "arginase", "settings": "arginase inhibitor; cited from earlier work"}}, "note": "“Also recorded” adds a separate entry of the source.", "data": [{"compound": "O=C(O)c1cc(O)c(O)c(O)c1", "note": "[gallic acid]", "values": [{"measurement": "MIC", "setting": "[1]", "value": 250, "unit": "µg/mL"}, {"measurement": "MIC", "setting": "[2]", "value": 500, "unit": "µg/mL"}, {"measurement": "MIC", "setting": "[3]", "value": 500, "unit": "µg/mL"}, {"measurement": "maximum reduction in bacterial growth", "setting": "[4]", "value": 7.70, "unit": "%"}, {"measurement": "maximum reduction in bacterial growth", "setting": "[5]", "value": 5.33, "unit": "%"}, {"measurement": "effect of sub-MIC pre-treatment on sensitivity of the bacteria", "setting": "[6]", "value": "does not affect the sensitivity; also recorded: no effect on the sensitivity"}, {"measurement": "effect of sub-MIC pre-treatment on sensitivity of the bacteria", "setting": "[7]", "value": "did not alter the sensitivity; also recorded: no effect on the sensitivity"}, {"measurement": "IC50", "setting": "[8]", "value": 2200, "unit": "nM"}]}]}
